{"source": "ChEMBL document CHEMBL4177664", "about": "“Macrocyclic pyrrolobenzodiazepine dimers as antibody-drug conjugate payloads” (Bioorg Med Chem Lett, 2017)", "key": {"[1]": {"tested_on": "NCI-H226", "experiment": "Antiproliferative activity against human NCI-H226 cells after 72 hrs by MTS assay", "format": "functional, cell-based", "conditions": "NCI-H226, 72 h"}, "[2]": {"tested_on": "NCI-N87", "experiment": "Antiproliferative activity against human NCI-N87 cells after 72 hrs by MTS assay", "format": "functional, cell-based", "conditions": "NCI-N87, 72 h"}, "[3]": {"tested_on": "OVCAR-3", "experiment": "Antiproliferative activity against human OVCAR3 cells after 72 hrs by MTS assay", "format": "functional, cell-based", "conditions": "OVCAR-3, 72 h"}, "[4]": {"tested_on": "HCT-116", "experiment": "Antiproliferative activity against human HCT116 cells after 72 hrs by MTS assay", "format": "functional, cell-based", "conditions": "HCT-116, 72 h"}, "[5]": {"tested_on": "HCT-116/VM46", "experiment": "Antiproliferative activity against human HCT116/VM46 cells after 72 hrs by MTS assay", "format": "functional, cell-based", "conditions": "HCT-116/VM46, 72 h"}, "[6]": {"experiment": "Aqueous solubility of the compound at pH 5.5", "format": "physicochemical", "conditions": "aqueous medium"}, "[7]": {"experiment": "Stability in rat serum measured up to 24 hrs", "format": "ADME, cell-free"}, "[8]": {"experiment": "Stability in human serum measured up to 24 hrs", "format": "ADME, cell-free"}, "[9]": {"experiment": "Stability in mouse serum measured up to 24 hrs", "format": "ADME, cell-free"}}, "data": [{"compound": "O=C1c2cc3c(cc2N=C[C@@H]2CCCN12)OCCCOc1cc2c(cc1OCCCCCCCO3)C(=O)N1CCC[C@H]1C=N2", "values": [{"measurement": "IC50", "setting": "[1]", "result": 8.1, "unit": "nM"}, {"measurement": "IC50", "setting": "[2]", "result": 4.6, "unit": "nM"}, {"measurement": "IC50", "setting": "[3]", "result": 3.4, "unit": "nM"}]}, {"compound": "O=C1c2cc3c(cc2N=C[C@@H]2CCCN12)OCCCOc1cc2c(cc1OCCCCCCCCO3)C(=O)N1CCC[C@H]1C=N2", "values": [{"measurement": "IC50", "setting": "[1]", "result": 1.6, "unit": "nM"}, {"measurement": "IC50", "setting": "[2]", "result": 2.7, "unit": "nM"}, {"measurement": "IC50", "setting": "[3]", "result": 1.2, "unit": "nM"}]}, {"compound": "O=C1c2cc3c(cc2N=C[C@@H]2CCCN12)OCCCOc1cc2c(cc1OCCCCCCCCCCCCO3)C(=O)N1CCC[C@H]1C=N2", "values": [{"measurement": "IC50", "setting": "[1]", "result": 109, "unit": "nM"}, {"measurement": "IC50", "setting": "[2]", "result": 306, "unit": "nM"}, {"measurement": "IC50", "setting": "[3]", "result": 136, "unit": "nM"}]}, {"compound": "COc1cc2c(cc1OCCCOc1cc3c(cc1OC)C(=O)N1CCC[C@H]1C=N3)N=C[C@@H]1CCCN1C2=O", "note": "[DSB-120]", "values": [{"measurement": "IC50", "setting": "[1]", "result": 70, "unit": "nM"}, {"measurement": "IC50", "setting": "[2]", "result": 63, "unit": "nM"}, {"measurement": "IC50", "setting": "[3]", "result": 56, "unit": "nM"}]}, {"compound": "COc1ccc(C2=CN3C(=O)c4cc5c(cc4N=C[C@@H]3C2)OCCCOc2cc3c(cc2OCCCCCCCCO5)C(=O)N2C=C(c4ccc(OC)cc4)C[C@H]2C=N3)cc1", "values": [{"measurement": "IC50", "setting": "[1]", "result": 0.993, "unit": "nM"}, {"measurement": "IC50", "setting": "[2]", "result": 0.621, "unit": "nM"}, {"measurement": "IC50", "setting": "[3]", "result": 1.82, "unit": "nM"}, {"measurement": "IC50", "setting": "[4]", "result": 0.167, "unit": "nM"}, {"measurement": "IC50", "setting": "[5]", "result": 1.05, "unit": "nM"}, {"measurement": "solubility", "setting": "[6]", "result": "< 1", "unit": "µg/mL"}]}, {"compound": "O=C(CCN1C(=O)C=CC1=O)NCCOCCOCCOCCOCCOCCOCCOCCOCCC(=O)ON1C(=O)CCC1=O", "values": [{"measurement": "Stability", "setting": "[7]", "result": "Unstable"}, {"measurement": "Stability", "setting": "[8]", "result": "Unstable"}, {"measurement": "Stability", "setting": "[9]", "result": "Unstable"}]}, {"compound": "O=C1c2cc3c(cc2N=C[C@@H]2CCCN12)OCCCOc1cc2c(cc1OCCCCCCCCCCO3)C(=O)N1CCC[C@H]1C=N2", "values": [{"measurement": "IC50", "setting": "[1]", "result": 12, "unit": "nM"}, {"measurement": "IC50", "setting": "[2]", "result": 22, "unit": "nM"}, {"measurement": "IC50", "setting": "[3]", "result": 20, "unit": "nM"}]}, {"compound": "O=C1c2cc3c(cc2N=C[C@@H]2CCCN12)OCCCOc1cc2c(cc1OCCCCCCCCCO3)C(=O)N1CCC[C@H]1C=N2", "values": [{"measurement": "IC50", "setting": "[1]", "result": 8.7, "unit": "nM"}, {"measurement": "IC50", "setting": "[2]", "result": 8.3, "unit": "nM"}, {"measurement": "IC50", "setting": "[3]", "result": 7.3, "unit": "nM"}]}, {"compound": "COc1ccc(C2=CN3C(=O)c4cc5c(cc4N=C[C@@H]3C2)OCCCOc2cc3c(cc2OCCCCCCCCO5)C(=O)N2C=C(c4ccc(N)cc4)C[C@H]2C=N3)cc1", "values": [{"measurement": "IC50", "setting": "[1]", "result": 0.355, "unit": "nM"}, {"measurement": "IC50", "setting": "[2]", "result": 0.559, "unit": "nM"}, {"measurement": "IC50", "setting": "[3]", "result": 0.311, "unit": "nM"}, {"measurement": "IC50", "setting": "[4]", "result": 0.063, "unit": "nM"}, {"measurement": "IC50", "setting": "[5]", "result": 0.36, "unit": "nM"}]}, {"compound": "O=C1c2cc3c(cc2N=C[C@@H]2CCCN12)OCCCOc1cc2c(cc1OCCCCCCCCCCCO3)C(=O)N1CCC[C@H]1C=N2", "values": [{"measurement": "IC50", "setting": "[1]", "result": 69, "unit": "nM"}, {"measurement": "IC50", "setting": "[2]", "result": 146, "unit": "nM"}, {"measurement": "IC50", "setting": "[3]", "result": 78, "unit": "nM"}]}, {"compound": "COc1cc2c(cc1OCCCOc1cc3c(cc1OC)C(=O)N1C=C(c4ccccc4)C[C@H]1C=N3)N=C[C@@H]1CC(c3ccccc3)=CN1C2=O", "values": [{"measurement": "IC50", "setting": "[1]", "result": 0.117, "unit": "nM"}, {"measurement": "IC50", "setting": "[2]", "result": 0.152, "unit": "nM"}, {"measurement": "IC50", "setting": "[3]", "result": 0.126, "unit": "nM"}]}, {"compound": "CC1=CN2C(=O)c3cc4c(cc3N=C[C@@H]2C1)OCCCOc1cc2c(cc1OCCCCCCCCO4)C(=O)N1C=C(c3ccc(N)cc3)C[C@H]1C=N2", "values": [{"measurement": "IC50", "setting": "[1]", "result": 0.655, "unit": "nM"}, {"measurement": "IC50", "setting": "[2]", "result": 1.36, "unit": "nM"}, {"measurement": "IC50", "setting": "[3]", "result": 1.24, "unit": "nM"}, {"measurement": "IC50", "setting": "[4]", "result": 0.135, "unit": "nM"}, {"measurement": "IC50", "setting": "[5]", "result": 1.22, "unit": "nM"}]}, {"compound": "CN1CCN(c2ccc(C3=CN4C(=O)c5cc6c(cc5N=C[C@@H]4C3)OCCCOc3cc4c(cc3OCCCCCCCCO6)C(=O)N3C=C(c5ccc(N)cc5)C[C@H]3C=N4)cc2)CC1", "values": [{"measurement": "IC50", "setting": "[1]", "result": 0.024, "unit": "nM"}, {"measurement": "IC50", "setting": "[2]", "result": 0.486, "unit": "nM"}, {"measurement": "IC50", "setting": "[3]", "result": 0.385, "unit": "nM"}, {"measurement": "IC50", "setting": "[4]", "result": 0.016, "unit": "nM"}, {"measurement": "IC50", "setting": "[5]", "result": 0.015, "unit": "nM"}]}, {"compound": "CN1CCN(c2ccc(C3=CN4C(=O)c5cc6c(cc5N=C[C@@H]4C3)OCCCOc3cc4c(cc3OCCCCCCCCO6)C(=O)N3C=C(c5ccc(N6CCN(C)CC6)cc5)C[C@H]3C=N4)cc2)CC1", "values": [{"measurement": "IC50", "setting": "[1]", "result": 0.047, "unit": "nM"}, {"measurement": "IC50", "setting": "[2]", "result": 0.034, "unit": "nM"}, {"measurement": "IC50", "setting": "[3]", "result": 0.35, "unit": "nM"}, {"measurement": "IC50", "setting": "[4]", "result": 0.006, "unit": "nM"}, {"measurement": "IC50", "setting": "[5]", "result": 0.076, "unit": "nM"}, {"measurement": "solubility", "setting": "[6]", "result": "> 698", "unit": "µg/mL"}]}, {"compound": "O=C1c2cc3c(cc2N=C[C@@H]2CC(c4ccccc4)=CN12)OCCCOc1cc2c(cc1OCCOCCOCCO3)C(=O)N1C=C(c3ccccc3)C[C@H]1C=N2", "values": [{"measurement": "IC50", "setting": "[1]", "result": 1.07, "unit": "nM"}, {"measurement": "IC50", "setting": "[2]", "result": 1.54, "unit": "nM"}, {"measurement": "IC50", "setting": "[3]", "result": 1.7, "unit": "nM"}, {"measurement": "IC50", "setting": "[4]", "result": 0.129, "unit": "nM"}, {"measurement": "IC50", "setting": "[5]", "result": 6.44, "unit": "nM"}, {"measurement": "solubility", "setting": "[6]", "result": "< 1", "unit": "µg/mL"}]}]}
